Article PMC2933276 (Nature structural & molecular biology, 2010)
One block for each molecule: values may come before it.

How the values were obtained:
[1] = target: T1, S. pombe Dcp1-Dcp2 complex (Dcp2 1-243, Dcp1 1-127; D1D2) (Schizosaccharomyces pombe, UniProt O13828); assay: SAXS, ligand-induced compaction; type: binding; conditions: 10 mM m7GpppA; pH 7.0, 150 mM NaCl, 50 mM HEPES, 2 mM DTT
T1 sequence (O13828 1-243): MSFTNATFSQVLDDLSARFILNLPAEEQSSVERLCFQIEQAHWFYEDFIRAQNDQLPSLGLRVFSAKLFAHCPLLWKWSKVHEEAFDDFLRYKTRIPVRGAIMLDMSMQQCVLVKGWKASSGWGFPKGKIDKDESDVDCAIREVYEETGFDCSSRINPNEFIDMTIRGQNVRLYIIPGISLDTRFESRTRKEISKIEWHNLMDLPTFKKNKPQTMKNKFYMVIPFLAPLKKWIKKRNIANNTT
T1 sequence (Q9P805 1-127 partner): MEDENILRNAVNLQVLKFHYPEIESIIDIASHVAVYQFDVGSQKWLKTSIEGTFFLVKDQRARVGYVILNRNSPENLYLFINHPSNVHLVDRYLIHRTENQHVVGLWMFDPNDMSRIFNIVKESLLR

[2] = target: T2, S. pombe Dcp2 regulatory domain (residues 1-94) (Schizosaccharomyces pombe, UniProt O13828); assay: […]-HSQC NMR titration; type: binding
T2 sequence (O13828 1-94): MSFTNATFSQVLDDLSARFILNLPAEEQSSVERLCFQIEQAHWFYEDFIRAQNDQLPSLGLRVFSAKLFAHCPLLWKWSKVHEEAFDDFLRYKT

[3] = target: T3, S. pombe Dcp2 catalytic domain (residues 95-243) (Schizosaccharomyces pombe, UniProt O13828); assay: […]-HSQC NMR titration; type: binding
T3 sequence (O13828 95-243): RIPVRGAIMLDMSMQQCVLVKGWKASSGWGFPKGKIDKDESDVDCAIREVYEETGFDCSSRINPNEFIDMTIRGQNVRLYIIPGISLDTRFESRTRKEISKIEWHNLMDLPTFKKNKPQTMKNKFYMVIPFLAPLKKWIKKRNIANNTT

[4] = target: T4, S. pombe Dcp2 (spDcp2) 1–243 (S. pombe, UniProt O13828 1-243); assay: SEC
T4 sequence: T1 sequence (O13828 1-243)

[5] = target: S. pombe Dcp2 1–243 R167Q (S. pombe, UniProt O13828 1-243, R167Q); assay: SEC
[6] = target: S. pombe Dcp2 1–243 W43A (S. pombe, UniProt O13828 1-243, W43A); assay: SEC

Kd [2]: ~12 mM
Kd [3]: 12 mM
Molecule: C[n+]1cn([C@@H]2O[C@H](COP(=O)(O)OP(=O)(O)O)[C@@H](O)[C@H]2O)c2nc(N)[nH]c(=O)c21 [m^7GDP]

binding result [4]: binds
binding result [5]: binds
binding result [6]: binds
B1: S. pombe Dcp1 1–127 (natural protein)
chain: T1 sequence (Q9P805 1-127 partner)

The next lines start with the molecule.

Molecule: C[n+]1cn([C@@H]2O[C@H](COP(=O)(O)OP(=O)(O)OP(=O)(O)OC[C@H]3O[C@@H](n4cnc5c(N)ncnc54)[C@H](O)[C@@H]3O)[C@@H](O)[C@H]2O)c2nc(N)[nH]c(=O)c21 [m^7GpppA]
SAXS, ligand-induced compaction [1]: reveals a compaction in the presence of cap-analog m^7GpppA that is small but reproducible

Molecule: Nc1nc2c(ncn2[C@@H]2O[C@H](COP(=O)(O)OP(=O)(O)O)[C@@H](O)[C@H]2O)c(=O)[nH]1 [GDP]
Kd [2]: ~40 mM
